Data: patent US8536207B2, “Method for treating a keratoconjunctival disorder” (Santen Pharmaceutical Co., Ltd., priority 2005, dated 2013)

Columns and labels:
[1] = tested on: corneal damage in rats in which the exorbital lacrimal gland was removed; experiment: Test for therapeutic effect on corneal damage using rats in which the exorbital lacrimal gland was removed; assay type: in vivo, male SD rats; details: for Improvement ratio (%) of corneal damage: fluorescein staining score vs saline control
Experimental: 1. Test for Therapeutic Effect on Corneal Damage Using Rats in which the Exorbital Lacrimal Gland was Removed
Using male SD rats, corneal disorder models were produced in accordance with the method of Fujihara et al. (Invest. Ophthalmol. Vis. Sci. 42 (1): 96-100 (2001)). After the production of the corneal disorder models, the improvement ratio of corneal damage was evaluated by a method (Journal of the eye 21 (1): 87-90 (2004)) modified from the method of Miyata et al. (Japanese Review of Clinical Ophthalmology 48 (2): 183-188 (1994)).
Male SD rats were systemically anesthetized by an administration of Nembutal. Subsequently, the exorbital lacrimal gland of each rat was removed and a corneal damage was induced over a period of 2 months.
A physiological saline solution containing ebselen (25 μM) was instilled into both eyes 6 times a day for 14 days (one group consisting of 8 animals).
A physiological saline solution containing edaravone (200 μM) was instilled into both eyes 6 times a day for 14 days (one group consisting of 8 animals).
A physiological saline solution containing α-lipoic acid (200 μM) was instilled into both eyes 6 times a day for 14 days (one group consisting of 8 animals).
In a control group, physiological saline was instilled into both eyes 6 times a day for 14 days (one group consisting of 8 animals)
Fourteen days after the start of instillation, the damaged parts of the cornea were stained with fluorescein. For each of the upper, middle and lower parts of the cornea, the degree of fluorescein staining was evaluated by scoring according to the criteria shown below and the improvement ratio of corneal damage was calculated from the mean value of the total scores for each of the above-mentioned parts.
1: Scattered staining (punctate staining being separated)
2: Moderate staining (a part of punctate staining being adjacent)
3: Heavy staining (punctate staining being barely separated)
Incidentally, intermediate values (at intervals of 0.5) were set between the respective scores.
By taking the mean value of the scores for the control group (physiological saline) as a standard (improvement ratio: 0%) and according to the calculation equation shown below, the improvement ratios for the ebselen (25 μM) administration group and the edaravone (200 μM) administration group and α-lipoic acid (200 μM) administration group were calculated, respectively, which are shown in Table 1. Incidentally, the mean value of the scores is a mean of those of 8 cases in each group. Improvement ratio (%)={(control)−(administered compound)}/damage degree×100 Damage degree=(control)−(normal eye)

[2] = tested on: corneal damage in senescence-accelerated mouse model P10 (SAMP10); experiment: Pharmacological test using SAMP10 (corneal damage, fluorescein staining); assay type: in vivo; details: for Score of fluorescein staining: mean±standard error, maximum 9 points
Experimental: 2. Pharmacological Test Using SAMP10
Using senescence-accelerated mouse model P10 (hereinafter referred to as SAMP10), an effect of ebselen on a corneal damage was evaluated in accordance with the method of Hirai, Shibagaki et al. (JP-A-2006-104913). Incidentally, as a control animal, SAMR1 with normal senescence was used.
SAMP10 develops a corneal disorder with aging. Accordingly, a corneal damage of female SAMP10 at 16 weeks of age (before a change caused by aging is observed) was evaluated, and then, administration of an ebselen solution or its vehicle was started. At 8 weeks after the start of administration (at 24 weeks of age), the same evaluation was carried out again. In the same manner, a corneal damage of female SAMR1 at 16 weeks of age was evaluated, and thereafter, administration of the above-mentioned vehicle was started. Then, at 8 weeks after the start of administration (at 24 weeks of age), the same evaluation was carried out again.
Ebselen suspensions obtained by suspending it in a 1% (w/v) methyl cellulose aqueous solution (prepared by dissolving methyl cellulose in ultrapure water) at a concentration of 0.45 mg/mL and 4.5 mg/mL respectively were orally administered to female SAMP10 once a day at a dose of 6.67 μL per g of body weight of mouse. The both administration groups were determined to be a 3 mg/kg group and a 30 mg/kg group, respectively. The administration was carried out 5 days a week (Mon, Tue, Wed, Thu, Fri) over a period of 8 weeks. As a control, a 1% (w/v) methyl cellulose aqueous solution was orally administered to SAMP10 in the same manner at a dose of 6.67 μL per g of body weight of mouse. Further, to the control animal, female SAMR1, a 1% (w/v) methyl cellulose aqueous solution was orally administered in the same manner. Incidentally, the number of animals in each group of SAMP10 is 22 eyes (11 mice), and the number of SAMR1 is 16 eyes (8 mice).
The damaged parts of the cornea of SAMP10 and SAMR1 were stained with fluorescein immediately before and at 8 weeks after the start of administration. For each of the upper, middle and lower parts of the cornea, the degree of fluorescein staining was evaluated by scoring according to the evaluation criteria described in “1. Test for therapeutic effect on corneal damage using rat models in which the exorbital lacrimal gland was removed”, and the scoring of the degree of corneal damage (a maximum score of 9 points) was carried out by obtaining the total scores for each of the above-mentioned parts.
Incidentally, the scores in the table are expressed as mean±standard error in each group.

[3] = 200 μM in physiological saline instilled into both eyes 6 times a day for 14 days

SMILES	Improvement ratio (%) of corneal damage [1, 3]	Staining score compared with the vehicle administration group of SAMP10 ([2]; 3 mg/kg and 30 mg/kg groups, 24 weeks of age, Dunnett's test p < 0.05)	Score of fluorescein staining ([2]; SAMP10, 3 mg/kg group, 16 weeks of age (immediately before start of administration))	Score of fluorescein staining ([2]; SAMP10, 3 mg/kg oral once a day, 5 days a week for 8 weeks, 24 weeks of age)	Score of fluorescein staining ([2]; SAMP10, 30 mg/kg group, 16 weeks of age (immediately before start of administration))	Score of fluorescein staining ([2]; SAMP10, 30 mg/kg oral once a day, 5 days a week for 8 weeks, 24 weeks of age)	Improvement ratio (%) of corneal damage ([1]; 25 μM in physiological saline instilled into both eyes 6 times a day for 14 days)	Improvement ratio compared with edaravone and α-lipoic acid ([1]; ebselen 25 μM vs comparators 200 μM, instillation for 14 days)
O=C(O)CCCCC1CCSS1 (stereo in doubt) [α-Lipoic acid, (3R)-1,2-dithiolane-3-pentanoic acid]	30.8%							
O=c1c2ccccc2[se]n1-c1ccccc1 [Ebselen, 2-phenyl-1,2-benzisoselenazol-3(2H)-one]		significantly decreased	2.61 ± 0.38	2.95 ± 0.45	2.45 ± 0.30	2.68 ± 0.33	76.5%	more than twice as high
CC1=NN(c2ccccc2)C(=O)C1 [Edaravone, 3-methyl-1-phenyl-2-pyrazolin-5-one]	36.9%							
